Measured values taken from the NIST ThermoML archive (doi:10.1021/je100851w).
± gives the expanded uncertainty stated by the source.

Assay: xn = mol fraction of the nth substance listed
Conditions: 363.24 K, Fluid (supercritical or subcritical phases), Vibrating tube method, x1 = 0.2691

For `S` [hydrogen sulfide] + CCC, the mass density (3752 kPa) was 76.3 ± 0.1 kg/m3, the mass density (3878 kPa) was 80.7 ± 0.2 kg/m3 and the mass density (3964 kPa) was 84.5 ± 0.2 kg/m3. The mass density (4056 kPa) was 88.4 ± 0.2 kg/m3, the mass density (4156 kPa) was 92.4 ± 0.2 kg/m3 and the mass density (4237 kPa) was 96.3 ± 0.2 kg/m3. It also gave a mass density (4354 kPa) of 102.5 ± 0.2 kg/m3, a mass density (4468 kPa) of 108.5 ± 0.3 kg/m3 and a mass density (4619 kPa) of 120.8 ± 0.3 kg/m3. The mass density (4747 kPa) was 132.2 ± 0.4 kg/m3, the mass density (4838 kPa) was 142.5 ± 1.1 kg/m3 and the mass density (4877 kPa) was 152.9 ± 1.2 kg/m3. For the same compound, the mass density (4905 kPa) was 166.8 ± 1.4 kg/m3, the mass density (4932 kPa) was 180.1 ± 1.9 kg/m3 and the mass density (4954 kPa) was 190.9 ± 1.9 kg/m3. It also gave a mass density (4982 kPa) of 203.7 ± 1.8 kg/m3, a mass density (5002 kPa) of 216 ± 1.8 kg/m3 and a mass density (5021 kPa) of 229.7 ± 1.7 kg/m3. The mass density (5043 kPa) was 241.1 ± 1.7 kg/m3, the mass density (5101 kPa) was 254 ± 1.4 kg/m3 and the mass density (5146 kPa) was 266.2 ± 1.1 kg/m3. For the same compound, the mass density (5182 kPa) was 277.5 ± 1.1 kg/m3, the mass density (5220 kPa) was 288.7 ± 1.1 kg/m3 and the mass density (5267 kPa) was 299.6 ± 1 kg/m3. It also gave a mass density (5324 kPa) of 307.2 ± 0.8 kg/m3, a mass density (5360 kPa) of 313.4 ± 0.6 kg/m3 and a mass density (5410 kPa) of 319.7 ± 0.6 kg/m3. For the same compound, the mass density (5474 kPa) was 326 ± 0.5 kg/m3, the mass density (5549 kPa) was 332.3 ± 0.5 kg/m3 and the mass density (5632 kPa) was 339.4 ± 0.4 kg/m3. For the same compound, the mass density (5762 kPa) was 346.5 ± 0.4 kg/m3, the mass density (5914 kPa) was 353.3 ± 0.4 kg/m3 and the mass density (6056 kPa) was 359.2 ± 0.4 kg/m3. For the same compound, the mass density (6228 kPa) was 365.4 ± 0.4 kg/m3, the mass density (6441 kPa) was 371.6 ± 0.4 kg/m3 and the mass density (6679 kPa) was 377.7 ± 0.4 kg/m3. For the same compound, the mass density (6961 kPa) was 383.9 ± 0.4 kg/m3, the mass density (7276 kPa) was 390 ± 0.4 kg/m3 and the mass density (7639 kPa) was 396.1 ± 0.4 kg/m3. It also gave a mass density (8055 kPa) of 402.1 ± 0.4 kg/m3, a mass density (8511 kPa) of 408 ± 0.4 kg/m3 and a mass density (9002 kPa) of 413.7 ± 0.5 kg/m3. It also gave a mass density (9557 kPa) of 419.4 ± 0.5 kg/m3, a mass density (10183 kPa) of 425.2 ± 0.5 kg/m3 and a mass density (10878 kPa) of 431.1 ± 0.5 kg/m3. It also gave a mass density (11648 kPa) of 436.9 ± 0.5 kg/m3, a mass density (12515 kPa) of 442.7 ± 0.6 kg/m3 and a mass density (13444 kPa) of 448.5 ± 0.6 kg/m3. The mass density (14452 kPa) was 454.1 ± 0.6 kg/m3, the mass density (15616 kPa) was 460.1 ± 0.6 kg/m3 and the mass density (16807 kPa) was 465.7 ± 0.7 kg/m3. For the same compound, the mass density (18163 kPa) was 471.5 ± 0.7 kg/m3, the mass density (19596 kPa) was 477.1 ± 0.8 kg/m3 and the mass density (20717 kPa) was 481.2 ± 0.8 kg/m3. The mass density (21739 kPa) was 484.7 ± 0.8 kg/m3, the mass density (22936 kPa) was 488.7 ± 0.9 kg/m3 and the mass density (24149 kPa) was 492.4 ± 0.9 kg/m3. It also gave a mass density (25434 kPa) of 496.2 ± 0.9 kg/m3, a mass density (26773 kPa) of 500 ± 1 kg/m3 and a mass density (28220 kPa) of 503.8 ± 1 kg/m3. For the same compound, the mass density (29831 kPa) was 507.9 ± 1 kg/m3, the mass density (31352 kPa) was 511.5 ± 1.1 kg/m3 and the mass density (32889 kPa) was 515 ± 1.1 kg/m3. The mass density (34710 kPa) was 519 ± 1.1 kg/m3.
